Assay results from ChEMBL document CHEMBL6115046, “Synthesis and In Vitro Profiling of Psilocin Derivatives: Improved Stability and Synthetic Properties” (J Med Chem, 2025).

Assays:
[1] = Metabolic stability in human liver microsomes assessed as degradation at 1 uM measured upto 45 mins in presence of NADPH measured per mg protein by LC-MS/MS analysis; assay type: ADME, Microsome; details: 0.75 h
[2] = Chemical stability of the compound in 1M HCl assessed as half life measured for 24 hrs by LC-MS analysis; assay type: physicochemical
[3] = Stability of the compound in 0.1M NaOH assessed as half life measured after 24 hrs by LC-MS analysis; assay type: physicochemical
[4] = Stability of the compound in 0.30% H2O2 assessed as half life measured after 24 hrs by LC-MS analysis; assay type: physicochemical
[5] = Stability of the compound in 1M HCl assessed as parent compound remaining measured for 24 hrs by LC-MS analysis; assay type: physicochemical; details: buffer
[6] = Thermal stability of compound assessed as half life at 60 degreeC measured for 6 days by LC-MS analysis; assay type: physicochemical; details: 144 h; time 6 day
[7] = Thermal stability of the compound assessed as parent compound remaining at 60 degreeC measured for 6 days by LC-MS analysis; assay type: physicochemical; details: time 6 day
[8] = Photolytic stability of the compound assessed as parent compound remaining incubated under 12900 lx light irradiation measured for 14 days by LC-MS analysis; assay type: physicochemical; details: time 14 day
[9] = Stability of the compound in 0.1M NaOH assessed as parent compound remaining measured after 24 hrs by LC-MS analysis; assay type: physicochemical; details: read-out: Stability
[10] = Stability of the compound in 0.30% H2O2 assessed as parent compound remaining measured after 24 hrs by LC-MS analysis; assay type: physicochemical; details: read-out: Stability
[11] = Photolytic stability of the compound assessed as half life under 12900 lx light irradiation measured for 14 days by LC-MS analysis; assay type: physicochemical; details: time 14 day

SMILES: CN(C)CCc1c[nH]c2cccc(OCc3ccccc3)c12
- Drug degradation [1]: 44 µL/min

SMILES: CN(C)CCc1c[nH]c2cccc(OB(O)O)c12.O=C(O)/C=C/C(=O)O
- Drug degradation [1]: > 200 µL/min

SMILES: COC(=O)Oc1cccc2[nH]cc(CCN(C)C)c12.O=C(O)/C=C/C(=O)O
- Drug degradation [1]: > 200 µL/min

SMILES: CCCCC(=O)Oc1cccc2[nH]cc(CCN(C)C)c12.O=C(O)/C=C/C(=O)O
- Drug degradation [1]: > 200 µL/min

SMILES: CCCC(=O)Oc1cccc2[nH]cc(CCN(C)C)c12.O=C(O)/C=C/C(=O)O
- Drug degradation [1]: > 200 µL/min

SMILES: CN(C)CCc1c[nH]c2cccc(OS(=O)(=O)O)c12
- Drug degradation [1]: > 200 µL/min

SMILES: CC(C)COC(=O)Oc1cccc2[nH]cc(CCN(C)C)c12.O=CO
- Drug degradation [1]: > 200 µL/min

SMILES: CN(C)CCc1c[nH]c2cccc(OC(=O)OCc3ccccc3)c12.O=C(O)/C=C/C(=O)O.O=CO
- Drug degradation [1]: > 200 µL/min

SMILES: CN(C)CCc1c[nH]c2cccc(OC(=O)N3CCCCC3)c12.O=C(O)/C=C/C(=O)O
- Drug degradation [1]: < 10 µL/min

SMILES: CN(C)CCc1c[nH]c2cccc(O)c12.O=C1O[C@H]([C@@H](O)CO)C(O)=C1O
- t1/2 ([2]; buffer, 24 h): > 166.67 h
- t1/2 [3]: 16.67 h
- t1/2 [4]: > 166.67 h
- Stability [5]: 97%
- t1/2 [6]: 150 h
- Stability ([7]; 144 h): 42%
- Stability ([8]; 336 h): 39%

SMILES: CN(C)CCc1c[nH]c2cccc(O)c12.OB(O)O
- half-life ([2]; 1M HCl): > 167 h
- remaining at 24 h [9]: 0%
- remaining at 24 h [10]: 0%
- remaining at 144 h ([7]; read-out: Stability): 0%
- half-life [11]: < 16.7 h
- remaining at 336 h ([8]; read-out: Stability): 0%

SMILES: CN(C)CCc1c[nH]c2cccc(OP(=O)(O)O)c12 [PSILOCYBIN]
- Drug degradation [1]: < 10 µL/min
